# Experimental data reported in ChEMBL document CHEMBL3124894, “Lactam sulfonamides as potent inhibitors of the Kv1.5 potassium ion channel” (Bioorg Med Chem Lett, 2014).
# Columns and labels:
# [1] = target: T1, Potassium voltage-gated channel subfamily A member 5 (Homo sapiens, UniProt P22460); test: Inhibition of human Kv1.5 ion channel expressed in CHO cells by patch clamp assay; type: cell-based
# [2] = Lipophilicity, log D of the compound by chromatography; type: physicochemical
# Oryctolagus cuniculus [3] = test: Antiarrhythmic activity in New Zealand white rabbit assessed as unbound steady-state plasma concentration giving 20% change in atrium effective refractory period at 0.1 to 1 umol/kg/min administered as infusion; type: functional
# [4] = Oral bioavailability in Beagle dog at 2 umol/kg; type: ADME, organism-based, Canis lupus familiaris; conditions: in vivo
# [5] = Clearance in Sprague-Dawley rat at 2 umol/kg, iv and 6 umol/kg, po; type: ADME, organism-based; conditions: in vivo
# [6] = Terminal half life in Sprague-Dawley rat at 2 umol/kg, iv and 6 umol/kg, po; type: ADME, organism-based; conditions: in vivo, read-out: beta t1/2 (converted)
# [7] = Terminal half life in Beagle dog at 1 umol/kg, iv and 2 umol/kg, po; type: ADME, organism-based, Canis lupus familiaris; conditions: in vivo, read-out: beta t1/2 (converted)
# Oryctolagus cuniculus [8] = test: Toxicity in New Zealand white rabbit assessed as CNS-like side effects at 0.1 to 1 umol/kg/min administered as infusion; type: organism-based; conditions: in vivo, iv
# Oryctolagus cuniculus [9] = test: Cardiotoxicity in New Zealand white rabbit assessed as QT interval at 0.1 to 1 umol/kg/min administered as infusion; type: toxicity, organism-based; conditions: in vivo, iv
# [10] = Oral bioavailability in Sprague-Dawley rat at 6 umol/kg; type: ADME, organism-based; conditions: in vivo
# [11] = Clearance in Beagle dog at 1 umol/kg, iv and 2 umol/kg, po; type: ADME, organism-based, Canis lupus familiaris; conditions: in vivo
# [12] = Intrinsic clearance in human liver microsomes assessed per mg protein; type: ADME; conditions: read-out: CLH
# [13] = target: T1, Potassium voltage-gated channel subfamily A member 5; test: Inhibition of Kv1.5 ion channel (unknown origin) expressed in CHO cells by Rb(+) efflux assay; type: cell-based
# T1 sequence (P22460 whole entry): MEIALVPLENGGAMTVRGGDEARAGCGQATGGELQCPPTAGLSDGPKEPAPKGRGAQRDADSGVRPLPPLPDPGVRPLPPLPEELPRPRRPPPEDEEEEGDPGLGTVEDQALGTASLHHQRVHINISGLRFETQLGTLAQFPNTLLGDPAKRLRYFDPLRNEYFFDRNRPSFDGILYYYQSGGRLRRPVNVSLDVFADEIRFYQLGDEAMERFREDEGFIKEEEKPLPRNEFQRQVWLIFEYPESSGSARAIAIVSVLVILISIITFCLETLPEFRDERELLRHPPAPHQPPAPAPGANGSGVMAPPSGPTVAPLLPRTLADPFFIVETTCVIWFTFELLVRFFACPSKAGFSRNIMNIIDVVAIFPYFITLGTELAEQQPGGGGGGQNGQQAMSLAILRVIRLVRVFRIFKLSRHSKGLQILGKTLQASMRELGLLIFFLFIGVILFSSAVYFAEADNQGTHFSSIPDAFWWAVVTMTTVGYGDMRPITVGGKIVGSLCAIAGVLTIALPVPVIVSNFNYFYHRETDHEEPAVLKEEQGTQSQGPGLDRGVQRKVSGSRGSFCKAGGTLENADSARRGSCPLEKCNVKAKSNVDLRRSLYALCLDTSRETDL
IC50 [1] [µM],chromatographic logD [2],SMILES,further results
7.6,2.9,N#Cc1cccc(S(=O)(=O)N(Cc2ccc(F)cc2)C[C@@H]2CCCC(=O)N2)c1,–
2.7,2.9,N#Cc1cccc(S(=O)(=O)N(CC[C@@H]2CCC(=O)N2)Cc2ccc(F)cc2)c1,–
0.81,3.1,CN1C(=O)CC[C@H]1CN(Cc1ccc(F)cc1)S(=O)(=O)c1cccc(C#N)c1,–
2.8,3.5,CCN1C(=O)CC[C@H]1CN(Cc1ccc(F)cc1)S(=O)(=O)c1cccc(C#N)c1,–
> 10,2.9,N#Cc1cccc(S(=O)(=O)N(CCc2ccc(F)cc2)C[C@@H]2CCC(=O)N2)c1,–
2.2,3.1,N#Cc1cccc(S(=O)(=O)N(Cc2ccc(Cl)cc2)C[C@@H]2CCC(=O)N2)c1,–
4.3,3,N#Cc1cccc(S(=O)(=O)N(Cc2cccc(Cl)c2)C[C@@H]2CCC(=O)N2)c1,–
> 10,2.7,N#Cc1cccc(S(=O)(=O)N(Cc2ccccc2Cl)C[C@@H]2CCC(=O)N2)c1,–
0.21,3.6,CN1C(=O)CC[C@H]1CN(Cc1ccc(Cl)cc1)S(=O)(=O)c1cccc(C#N)c1,Cp(f)ss (Oryctolagus cuniculus [3]): 0.35 µM; bioavailability [4]: 44%; clearance [5]: 45 mL/min/kg; half-life [6]: 31.8 min; half-life [7]: 52.2 min; Activity (Oryctolagus cuniculus [8]): Non-toxic; Time (Oryctolagus cuniculus [9]): < 10 ms; bioavailability [10]: 45%; clearance [11]: 31 mL/min/kg; microsomal CLint [12]: 116 µL/min/mg
2.2,3.4,NC(=O)c1ccc(N(Cc2ccc(F)cc2)S(=O)(=O)c2ccccc2F)cc1,–
4.8,6.2,O=S(=O)(c1ccccc1F)N(Cc1ccccc1)Cc1ccc(F)cc1,–
2,4.7,O=S(=O)(c1ccc(F)cc1)N(Cc1ccc(F)cc1)Cc1ccccn1,–
4.1,3,O=C1CC[C@@H](CN(Cc2ccc(F)cc2)S(=O)(=O)c2ccc(F)cc2)N1,–
8.8,2.7,O=C1CC[C@@H](CN(Cc2ccc(F)cc2)S(=O)(=O)c2ccccc2)N1,–
7.2,3.1,O=C1CC[C@@H](CN(Cc2ccc(F)cc2)S(=O)(=O)c2cccc(F)c2)N1,–
0.8,3.6,O=C1CC[C@@H](CN(Cc2ccc(F)cc2)S(=O)(=O)c2cccc(Cl)c2)N1,–
8.1,4.4,O=C1CC[C@@H](CN(Cc2ccc(F)cc2)S(=O)(=O)c2cc(Cl)cc(Cl)c2)N1,–
2,3.1,COc1cccc(S(=O)(=O)N(Cc2ccc(F)cc2)C[C@@H]2CCC(=O)N2)c1,–
> 10,3,O=C1CC[C@@H](CN(Cc2ccc(F)cc2)S(=O)(=O)c2cccc3c2OCCO3)N1,–
8.7,2,CS(=O)(=O)c1cccc(S(=O)(=O)N(Cc2ccc(F)cc2)C[C@@H]2CCC(=O)N2)c1,–
2.6,2.7,N#Cc1cccc(S(=O)(=O)N(Cc2ccc(F)cc2)C[C@@H]2CCC(=O)N2)c1,–
> 30,2.6,N#Cc1ccc(S(=O)(=O)N(Cc2ccc(F)cc2)C[C@@H]2CCC(=O)N2)cc1,–
> 30,2.5,N#Cc1ccccc1S(=O)(=O)N(Cc1ccc(F)cc1)C[C@@H]1CCC(=O)N1,–
8.7,2.5,N#Cc1cccc(S(=O)(=O)N(Cc2ccc(F)cc2)C[C@H]2CCC(=O)N2)c1,–
–,–,COc1ccc(S(=O)(=O)N[C@H]2CCCC[C@@H]2OCc2ccccc2)cc1 (racemic),IC50 [13]: 28 µM
–,4.6,COc1ccc(S(=O)(=O)N(Cc2ccccc2)[C@H]2CCCC[C@@H]2O)cc1 (racemic),IC50 [13]: 2 µM
